Assay results from patent US11473034B2, “Highly stable and alkaline cleaning solutions and soluble surfactant” (EVONIK OPERATIONS GMBH, priority 2018, dated 2022).

Assay: Foaming properties (automated shake test, foam volume relative to solution and foam volume)
Assay type: physicochemical
Details: 2 wt % in 45% KOH
Text: Determining the Foaming Properties of Surfactants
Foaming results from surfactants occupying the air/solution interface to stabilize films of solution that encircle air under agitation. Surfactants may produce more or less foam and contribute to higher or lower stability of these foams. This characteristic of a surfactant may be shown by shaking a tube in a controlled, repeatable fashion (generally through the use of automation) and then measuring the volume of foam in the tube relative to the volume of both foam and solution. Numerous examples of variations on this method may be found in scientific literature, such as Amaral, das Neves, J., Oliveira, Â. Z., and Bahia, M. F., “Foamability of Detergent Solutions Prepared with Different Types of Surfactants and Waters”, Journal of Surfactants and Detergents, 11, 275-278 (2008).
The foaming properties of solutions of Monosodium Cyclohexylamine Dipropionate (Example 1), Monosodium Butyloxypropylamine Dipropionate (Example 2), and 1.5 Sodium Butyloxypropylaminopropylamine Tripropionate (Example 3), prepared as 2 wt % in 45% KOH, were examined. Samples of each solution were shaken vigorously in an automated apparatus to ensure identical treatment of each sample and the volume of foam relative to the total volume of solution and foam was determined.

## 1.5 Sodium Butyloxypropylaminopropylamine Tripropionate [Example 3]
1 Minute
  Foam Volume (as Percentage of Solution and Foam Volume): 57.5 Percentage of Solution and Foam Volume
3 Minutes
  Foam Volume (as Percentage of Solution and Foam Volume): 53.1 Percentage of Solution and Foam Volume
Initial
  Foam Volume (as Percentage of Solution and Foam Volume): 57.6 Percentage of Solution and Foam Volume
